The values below come from US20260049078A1, “DIFLUORO- AND TRIFLUORO-ACETYL HYDRAZIDES AS SELECTIVE HDAC6 INHIBITORS” (ITALFARMACO S.P.A., priority 2022, published 2026).

The target of assay [1] is recombinant human HDAC6 (Homo sapiens (Human), UniProt Q9UBN7). The assay is described as follows: Enzyme inhibitory activity assay on HDAC6. In kind it is biochemical. As to conditions: 30 minutes preincubation at 25° C. On the procedure:
For each test compound, 100× concentrated DMSO solutions at 8 doses were prepared and then diluted in assay buffer (25 mM Tris-HCl, pH 8, 130 mM NaCl, 0.05% Tween-20, 10% Glycerol) to obtain 5× concentrated solutions in relation to the final concentrations (typical final concentration range—6.4-200000 nM or 0.18-50000 nM, final DMSO content—1%). Then 10 μL solution of each test compound concentration were placed on a 96-well plate in triplicate and 15 μL of 3.33× concentrated enzyme solution in the assay buffer containing 3.33× concentrated BSA (final BSA concentration 1 mg/mL) and, in case of HDAC6, 3.33× concentrated TCEP (final TCEP concentration—200 μM) were added to each well. After a period of preincubation at 25° C. (30 minutes for HDAC6 and 120 minutes for HDAC1), 25 μL of solution containing the substrate were added. As substrate, FLUOR DE LYS® deacetylase substrate (Enzo Life Sciences, cat: BML-KI104, FdL), FLUOR DE LYS®-Green substrate (Enzo Life Sciences, cat: BML-KI572, FdL_G) or Boc-Lys(Tfa)-AMC (Bachem, cat: 4060676.005, Tfal)—2× concentrated solution in assay buffer were used. Following a reaction period (30 minutes at 25° C.), 50 μL of the development solution consisting of concentrate FLUOR DE LYS® developer I (Enzo Life Sciences, ca: BML-KI105), diluted 200 times in buffer (50 mM Tris-HCl, pH 8, 137 mM NaCl, 2.7 mM KCl, 1 mM MgCl2) plus 2 μM TSA was added and, after 25 minutes at room temperature in the dark, using the Victor 1420 Multilabel Counter Perkin Elmer Wallac instrument, the fluorescence reading was carried out (excitation/emission: 485/535 nM—Fluor de Lys Green, 355/460 nM—Tfal, Fluor de Lys).
Enzymatic activity on recombinant human HDAC6 and HDAC1 was evaluated (Table 2) for each synthesized compound.

The test system of assay [2] is murine neuroblastoma N2a cell lines. The assay is described as follows: In vitro α-tubulin acetylation in N2a cell line. In kind it is cell-based. As to conditions: N2a cells, 16 hours; dose of the tabulated value not stated (tested at 10 μM, 1 μM and 0.1 μM). On the procedure:
The in vitro α-tubulin acetylation was evaluated on murine neuroblastoma N2a cell lines.
Cells were maintained in Eagle's Minimum Essential Medium (ATCC, cat: 30-2003) supplemented with 10% fetal bovine serum—FBS (Gibco, cat: 10270-106).
Cells were plated in 12-well plates (Costar, cat: 3512) at the density of 6×10^4 cells/cm^2, respectively. The test compounds were prepared as 20× concentrated medium solutions in respect to the final concentrations. The cells were treated the following day. The compounds were tested at 3 doses: 10 μM, 1 μM and 0.1 μM. The final DMSO content was set as 0.5%. The cells were incubated with the compounds at 37° C. for 16 hours.
At the end of the incubation period, the cells were harvested and centrifuged for 5 minutes at 200×g and washed with 0.9% NaCl at 4° C. The resulting pellet was treated for 30 minutes at 4° C. with 100 μl Complete Lysis-M buffer containing protease inhibitors (Complete Lysis-M Roche+Complete Tablets, Mini Easypack, cat: 4719956001) and phosphatase inhibitor cocktails (PhosStop Easypack, Roche, cat: 4906837001) and then centrifuged 10 minutes at 18213×g. The protein concentration in each supernatant was determined using BCA Protein Assay Kit (Pierce, cat: 23227). The samples were diluted in PBS 1× to obtain 2 μg/ml concentration and coated in MaxiSorp 96-well plates (Nunc, cat: 442404). The plates were incubated overnight at room temperature, then washed twice with Wash Buffer (PBS 1×+0.005% tween 20) and saturated for 1 hour at room temperature with 300 μL of 1×PBS containing 10% FBS. After washing twice with Wash Buffer, the plates were incubated for 2 hours at room temperature in the presence of 100 μl/well either anti-acetylated-α-tubulin antibody (Monoclonal Anti-Tubulin, Acetylated antibody produced in mouse, Sigma-Aldrich, cat: T6793) or total anti-α-tubulin antibody (Monoclonal Anti-α-Tubulin produced in mouse, Sigma-Aldrich, cat: T6074) diluted 1:1000 in 1×PBS containing 10% FBS. Following 5 washing cycles with Wash Buffer, the secondary antibody conjugated with the enzyme HRP (Goat anti-Mouse IgG, IgM, IgA (H+L), stock concentration 0.5 mg/ml, Thermo Fisher Scientific, cat: A10668), diluted 1:1000 in 1×PBS+10% FBS was added at the volume of 100 μl/well. After two hours of incubation at room temperature the plates were washed 4 times with Wash Buffer, then 100 μl/well of TMB substrate (TMB substrate kit, Thermo Fisher Scientific, cat: 34021) was added for 15 minutes at room temperature in the dark. The reaction was stopped by adding 50 μl of 2M H2SO4. The plates were read in BioTek Synergy H1 multimode microplate reader at a wavelength of 450 nm.
The measured absorbance was corrected by subtracting the mean of blank values (samples without the primary antibody). The absorbance ratios of acetyl to total tubulin assays were calculated and normalized to the reference compound (positive control) 4 parameter logistic curve, where 100% is the fitted top of the curve and 0% is DMSO control (protein extract obtained from non-treated cells). The results are expressed as fold increase compared to the control (DMSO).

Chain of recombinant human HDAC6 (Q9UBN7 whole entry): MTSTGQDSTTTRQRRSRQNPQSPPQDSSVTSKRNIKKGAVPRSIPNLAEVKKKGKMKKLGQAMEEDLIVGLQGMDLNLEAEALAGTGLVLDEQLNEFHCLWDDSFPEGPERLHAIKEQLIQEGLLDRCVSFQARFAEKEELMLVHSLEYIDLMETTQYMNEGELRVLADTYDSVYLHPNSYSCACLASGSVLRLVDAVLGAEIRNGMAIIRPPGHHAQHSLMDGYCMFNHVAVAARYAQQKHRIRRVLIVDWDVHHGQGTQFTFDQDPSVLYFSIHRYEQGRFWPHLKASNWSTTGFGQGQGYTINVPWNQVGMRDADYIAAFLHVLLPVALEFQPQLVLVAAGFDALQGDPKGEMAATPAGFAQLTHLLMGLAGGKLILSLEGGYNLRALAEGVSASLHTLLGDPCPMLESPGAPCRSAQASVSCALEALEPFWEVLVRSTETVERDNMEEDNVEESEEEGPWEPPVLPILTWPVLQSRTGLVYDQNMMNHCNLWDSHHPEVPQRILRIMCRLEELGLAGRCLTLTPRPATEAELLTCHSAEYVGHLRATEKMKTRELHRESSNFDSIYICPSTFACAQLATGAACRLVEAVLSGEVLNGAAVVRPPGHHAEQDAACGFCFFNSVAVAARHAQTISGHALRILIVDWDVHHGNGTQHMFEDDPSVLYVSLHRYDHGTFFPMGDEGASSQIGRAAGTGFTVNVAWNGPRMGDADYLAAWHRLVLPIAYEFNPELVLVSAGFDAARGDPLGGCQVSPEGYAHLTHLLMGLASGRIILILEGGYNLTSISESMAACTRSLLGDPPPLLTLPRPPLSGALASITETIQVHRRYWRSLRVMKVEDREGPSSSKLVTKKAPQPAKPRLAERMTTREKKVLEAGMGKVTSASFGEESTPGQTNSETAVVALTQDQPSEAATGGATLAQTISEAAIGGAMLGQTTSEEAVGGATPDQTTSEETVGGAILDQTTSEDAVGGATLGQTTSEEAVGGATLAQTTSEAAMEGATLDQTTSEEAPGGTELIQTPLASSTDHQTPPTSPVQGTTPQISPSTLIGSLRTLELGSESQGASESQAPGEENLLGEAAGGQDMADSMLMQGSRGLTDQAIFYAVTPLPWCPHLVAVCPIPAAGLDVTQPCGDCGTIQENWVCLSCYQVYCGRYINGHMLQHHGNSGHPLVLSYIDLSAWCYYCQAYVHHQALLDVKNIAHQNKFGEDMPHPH

The IC50 is the point on the concentration scale where inhibition reaches its midpoint. For `FC(F)c1nnc(-c2ccc(Cn3cc(-c4ccc(NC5=NCCN5)cc4)nn3)cc2)o1` [Compound 1-A], the IC50 in assay [1] was 14 nM.
With `FC(F)c1nnc(-c2ccc(Cn3cc(-c4ccccc4)nn3)nc2)o1` [Compound 13-A], the “Tubulin acetylation Fold increase compared to control” value (shortened to “Tubulin acetylation Fold increase”) in assay [2] is on record as 6 fold. Also, the IC50 in assay [1] turned out to be 32 nM.
For `Fc1ccccc1-c1cn(Cc2ccc(-c3nnc(C(F)F)o3)cn2)nn1` [Compound 14-A], in that order: 7 fold and 22 nM.
For the molecule `FC(F)c1nnc(-c2ccc(Cn3cc(-c4ccccn4)nn3)nc2)o1` [Compound 20-A], the “Tubulin acetylation Fold increase” value in assay [2] is 15 fold. The IC50 in assay [1] stood at 60 nM.
For `Nc1nc2ccc(-c3cn(Cc4ccc(-c5nnc(C(F)F)o5)cc4)nn3)cc2s1` [Compound 32-A], in that order: 20 fold and 26 nM.
For `Nc1nc2ccc(-c3cn(Cc4ccc(-c5nnc(C(F)F)o5)cc4Cl)nn3)cc2s1` [Compound 37-A], in that order: 31 fold and 61 nM.
Regarding `Nc1nc2ccc(-c3cn(Cc4ccc(-c5nnc(C(F)F)o5)cn4)nn3)cc2s1` [Compound 38-A], the “Tubulin acetylation Fold increase” value in assay [2] turned out to be 22 fold. In assay [1], the IC50 worked out at 8 nM.
For `Nc1nc2ccc(C3CN(Cc4ccc(C(=O)NNC(=O)C(F)F)s4)N=N3)cc2s1` (stereo not drawn) [Compound 48-A], in that order: 45 fold and 7 nM.
